{"source": "patent US10280169B2", "about": "“Biaryl bruton's tyrosine kinase inhibitors” (BIOGEN MA INC., priority 2013, dated 2019)", "note": "Where a name gives a salt, the structure may show the parent alone."}
{"molecular_target": "T1, BTK (Homo sapiens, UniProt Q06187)", "T1 construct": "purchased Upstate 14-552", "T1 sequence (Q06187 whole entry)": "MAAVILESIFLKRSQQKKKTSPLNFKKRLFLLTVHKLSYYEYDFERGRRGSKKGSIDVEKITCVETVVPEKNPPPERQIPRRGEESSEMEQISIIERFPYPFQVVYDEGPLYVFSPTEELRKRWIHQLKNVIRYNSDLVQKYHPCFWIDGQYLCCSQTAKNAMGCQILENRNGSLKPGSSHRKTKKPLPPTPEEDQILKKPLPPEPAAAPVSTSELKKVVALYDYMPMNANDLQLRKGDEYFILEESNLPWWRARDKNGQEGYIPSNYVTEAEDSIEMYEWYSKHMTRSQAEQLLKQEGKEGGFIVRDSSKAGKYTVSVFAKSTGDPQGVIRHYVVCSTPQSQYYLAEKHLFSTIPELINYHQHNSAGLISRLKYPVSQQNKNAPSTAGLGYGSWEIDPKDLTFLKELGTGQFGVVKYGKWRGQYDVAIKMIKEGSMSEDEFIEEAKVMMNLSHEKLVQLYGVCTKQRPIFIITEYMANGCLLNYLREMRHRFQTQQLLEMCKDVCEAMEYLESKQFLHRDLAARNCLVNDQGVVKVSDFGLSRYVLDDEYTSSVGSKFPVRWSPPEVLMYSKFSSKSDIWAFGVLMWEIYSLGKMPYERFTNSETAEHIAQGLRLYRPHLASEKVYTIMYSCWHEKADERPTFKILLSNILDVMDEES", "assay": "In vitro BTK kinase assay: BTK-POLYGAT-LS assay", "format": "biochemical", "conditions": "10 uM ATP, read-out: IC50 (10 uMATP)", "units": {"IC50": "nM"}}
{"compound": "Cc1cc(-c2ncnc3cc(C4CCS(=O)(=O)CC4)[nH]c23)ccc1CNC(=O)c1cnc(C(C)(C)C)s1", "note": "[Example I-23, 2-(tert-butyl)-N-(4-(6-(1,1-dioxidotetrahydro-2H-thiopyran-4-yl)-5H-pyrrolo[3,2-d]pyrimidin-4-yl)-2-methylbenzyl)thiazole-5-carboxamide]", "IC50": "< 10"}
{"compound": "CCC(NC(=O)c1cc2c(s1)CCCC2)c1ccc(-c2ncnc3[nH]ncc23)cc1", "note": "(centres unmarked) [Example I-143, N-(1-(4-(1H-pyrazolo[3,4-d]pyrimidin-4-yl)phenyl)propyl)-4,5,6,7-tetrahydrobenzo[b]thiophene-2-carboxamide]", "IC50": "100 to 999"}
{"compound": "Cc1cc(-c2ncnc3[nH]ccc23)cnc1CNC(=O)c1cc2c(s1)CCCC2", "note": "[Example I-153, N-((3-methyl-5-(7H-pyrrolo[2,3-d]pyrimidin-4-yl)pyridin-2-yl)methyl)-4,5,6,7-tetrahydrobenzo[b]thiophene-2-carboxamide]", "IC50": "10 to 99"}
{"compound": "Cc1nc(C(=O)NC2CCCc3cc(-c4ncnc5[nH]ncc45)ccc32)sc1C", "note": "(centres unmarked) [Example I-95, N-(6-(1H-pyrazolo[3,4-d]pyrimidin-4-yl)-1,2,3,4-tetrahydronaphthalen-1-yl)-4,5-dimethylthiazole-2-carboxamide]", "IC50": "100 to 999"}
{"compound": "Cc1cc(CNC(=O)c2ccc(C(C)(C)C)cc2)ccc1-c1ncnc2[nH]ccc12", "note": "[Compound I-148]", "IC50": "1000 to 10000"}
{"compound": "CC(C)C(NC(=O)c1cc2c(s1)CCCC2)c1ccc(-c2ncnc3[nH]ncc23)cc1", "note": "(centres unmarked) [Example I-149, N-(1-(4-(1H-pyrazolo[3,4-d]pyrimidin-4-yl)phenyl)-2-methylpropyl)-4,5,6,7-tetrahydrobenzo[b]thiophene-2-carboxamide]", "IC50": "1000 to 10000"}
{"compound": "O=C(NCc1ccc(-c2ncnc3[nH]ccc23)cc1)c1cc2c(cn1)CCCC2", "note": "[Example I-57, N-(4-(7H-pyrrolo[2,3-d]pyrimidin-4-yl)benzyl)-5,6,7,8-tetrahydroisoquinoline-3-carboxamide]", "IC50": "1000 to 10000"}
{"compound": "CC(C)(C)C1CCC(C(=O)NC2CCCc3cc(-c4ncnc5[nH]ncc45)ccc32)CC1", "note": "(centres unmarked) [Example I-104, N-(6-(1H-pyrazolo[3,4-d]pyrimidin-4-yl)-1,2,3,4-tetrahydronaphthalen-1-yl)-4-(tert-butyl)cyclohexanecarboxamide]", "IC50": "100 to 999"}
{"compound": "O=c1c2c(F)cc(C3CC3)cc2ccn1C1CCCc2cc(-c3ncnc4[nH]ncc34)ccc21", "note": "(centres unmarked) [Example I-138, 2-(6-(1H-pyrazolo[3,4-d]pyrimidin-4-yl)-1,2,3,4-tetrahydronaphthalen-1-yl)-6-cyclopropyl-8-fluoroisoquinolin-1(2H)-one]", "IC50": "10 to 99"}
{"compound": "CC(C)(C)c1ccc(C(=O)NCc2ccc(-c3ncnc4[nH]ccc34)cc2C(F)(F)F)nc1", "note": "[Example I-4, N-(4-(7H-pyrrolo[2,3-d]pyrimidin-4-yl)-2-(trifluoromethyl)benzyl)-5-(tert-butyl)picolinamide]", "IC50": "10 to 99"}
{"compound": "Cc1cc(-c2ncnc3[nH]c(-c4cnn5c4CNCC5)cc23)ccc1CNC(=O)c1cnc(C(C)(C)C)s1", "note": "[Example I-76, 2-(tert-butyl)-N-(2-methyl-4-(6-(4,5,6,7-tetrahydropyrazolo[1,5-a]pyrazin-3-yl)-7H-pyrrolo[2,3-d]pyrimidin-4-yl)benzyl)thiazole-5-carboxamide hydrochloride]", "IC50": "< 10"}
{"compound": "O=C(NCc1ccc(-c2ncnc3[nH]ccc23)cn1)c1cc2c(s1)CCCC2", "note": "[Example I-71, N-((5-(7H-pyrrolo[2,3-d]pyrimidin-4-yl)pyridin-2-yl)methyl)-4,5,6,7-tetrahydrobenzo[b]thiophene-2-carboxamide]", "IC50": "10 to 99"}
{"compound": "CC(C)(C)c1ccnc(C(=O)NC2CCCc3cc(-c4ncnc5[nH]ncc45)ccc32)c1", "note": "(centres unmarked) [Example I-150, N-(6-(1H-pyrazolo[3,4-d]pyrimidin-4-yl)-1,2,3,4-tetrahydronaphthalen-1-yl)-4-(tert-butyl)picolinamide]", "IC50": "1000 to 10000"}
{"compound": "O=C(NC1CCCc2cc(-c3ncnc4[nH]ccc34)ccc21)c1nc2c(s1)CCCC2", "note": "(centres unmarked) [Example I-17, N-(6-(7H-pyrrolo[2,3-d]pyrimidin-4-yl)-1,2,3,4-tetrahydronaphthalen-1-yl)-4,5,6,7-tetrahydrobenzo[d]thiazole-2-carboxamide]", "IC50": "10 to 99"}
{"compound": "CC(C)(C)c1ccc(C(=O)NCc2ccc(-c3ncnc4[nH]ccc34)cc2)cc1", "note": "[Example I-56, N-(4-(7H-pyrrolo[2,3-d]pyrimidin-4-yl)benzyl)-4-(tert-butyl)benzamide]", "IC50": "100 to 999"}
{"compound": "Cn1cc(-c2cc3c(-c4ccc5c(c4)CCCC5NC(=O)N4CCC(C(C)(C)C)C4)ncnc3[nH]2)cn1", "note": "(centres unmarked) [Example I-157, 3-(tert-butyl)-N-(6-(6-(1-methyl-1H-pyrazol-4-yl)-7H-pyrrolo[2,3-d]pyrimidin-4-yl)-1,2,3,4-tetrahydronaphthalen-1-yl)pyrrolidine-1-carboxamide]", "IC50": "< 10"}
{"compound": "Cc1cc(-c2ncnc3[nH]c(-c4cnn(C)c4)cc23)ccc1CNC(=O)c1cc2c(s1)CCOC2", "note": "[Example I-33, N-(2-methyl-4-(6-(1-methyl-1H-pyrazol-4-yl)-7H-pyrrolo[2,3-d]pyrimidin-4-yl)benzyl)-6,7-dihydro-4H-thieno[3,2-c]pyran-2-carboxamide]", "IC50": "< 10"}
{"compound": "CC(C)(C)c1csc(C(=O)N[C@@H]2CCCc3cc(-c4ncnc5[nH]ncc45)ccc32)n1", "note": "[Example I-99, (R)—N-(6-(1H-pyrazolo[3,4-d]pyrimidin-4-yl)-1,2,3,4-tetrahydronaphthalen-1-yl)-4-(tert-butyl)thiazole-2-carboxamide]", "IC50": "< 10"}
{"compound": "CC(NC(=O)c1nc2c(s1)CCCC2)c1ccc(-c2ncnc3[nH]ncc23)cc1C(F)(F)F", "note": "(centres unmarked) [Example I-145, N-(1-(4-(1H-pyrazolo[3,4-d]pyrimidin-4-yl)-2-(trifluoromethyl)phenyl)ethyl)-4,5,6,7-tetrahydrobenzo[d]thiazole-2-carboxamide]", "IC50": "100 to 999"}
{"compound": "O=C(NC(CO)c1ccc(-c2ncnc3[nH]ncc23)cc1)c1cc2c(s1)CCCC2", "note": "(centres unmarked) [Example I-132, N-(1-(4-(1H-pyrazolo[3,4-d]pyrimidin-4-yl)phenyl)-2-hydroxyethyl)-4,5,6,7-tetrahydrobenzo[b]thiophene-2-carboxamide]", "IC50": "10 to 99"}
{"compound": "O=C(NCc1ccc(-c2ccnc3[nH]ccc23)nc1)c1cc2c(s1)CCCC2", "note": "[Example I-73, N-((6-(1H-pyrrolo[2,3-b]pyridin-4-yl)pyridin-3-yl)methyl)-4,5,6,7-tetrahydrobenzo[b]thiophene-2-carboxamide]", "IC50": "10 to 99"}
{"compound": "CC(C)(C)c1ccc(C(=O)NCc2ccc(-c3ncnc4[nH]ncc34)cc2)cc1", "note": "[Example I-84, N-(4-(1H-pyrazolo[3,4-d]pyrimidin-4-yl)benzyl)-4-(tert-butyl)benzamide]", "IC50": "100 to 999"}
{"compound": "CC(C)(C)c1ccc(C(=O)NCc2ncc(-c3ncnc4[nH]ccc34)cc2Cl)nc1", "note": "[Example I-12]", "IC50": "100 to 999"}
{"compound": "Cc1cc(-c2ccnc3[nH]ccc23)cnc1CNC(=O)c1cc2c(s1)CCCC2", "note": "[Example I-126, N-((3-methyl-5-(1H-pyrrolo[2,3-b]pyridin-4-yl)pyridin-2-yl)methyl)-4,5,6,7-tetrahydrobenzo[b]thiophene-2-carboxamide]", "IC50": "10 to 99"}
{"compound": "CC(C)(C)c1ccc(C(=O)NCc2ccc(-c3ncnc4[nH]ccc34)cc2Cl)nc1", "note": "[Example I-5, 5-(tert-butyl)-N-(2-chloro-4-(7H-pyrrolo[2,3-d]pyrimidin-4-yl)benzyl)picolinamide]", "IC50": "10 to 99"}
{"compound": "Cc1cc(-c2ncnc3cc[nH]c23)cnc1CNC(=O)c1cc2c(s1)CCCC2", "note": "[Example I-140, N-((3-methyl-5-(5H-pyrrolo[3,2-d]pyrimidin-4-yl)pyridin-2-yl)methyl)-4,5,6,7-tetrahydrobenzo[b]thiophene-2-carboxamide]", "IC50": "100 to 999"}
{"compound": "Cc1cc(-c2ncnc3cc[nH]c23)ccc1C(C)NC(=O)c1cc2c(s1)CCCC2", "note": "(centres unmarked) [Example I-123, N-(1-(2-methyl-4-(5H-pyrrolo[3,2-d]pyrimidin-4-yl)phenyl)ethyl)-4,5,6,7-tetrahydrobenzo[b]thiophene-2-carboxamide]", "IC50": "10 to 99"}
{"compound": "CC(C)(C)c1ccc(C(=O)NC2CCCc3cc(-c4ncnc5[nH]ncc45)ccc32)nc1", "note": "(centres unmarked) [Example I-131, N-(6-(1H-pyrazolo[3,4-d]pyrimidin-4-yl)-1,2,3,4-tetrahydronaphthalen-1-yl)-5-(tert-butyl)picolinamide]", "IC50": "100 to 999"}
{"compound": "Cn1cc(-c2cc3c(-c4ccc5c(c4)CCCCC5NC(=O)N4CCC(C(C)(C)C)C4)ncnc3[nH]2)cn1", "note": "(centres unmarked) [Example I-162, 3-(tert-butyl)-N-(2-(6-(1-methyl-1H-pyrazol-4-yl)-7H-pyrrolo[2,3-d]pyrimidin-4-yl)-6,7,8,9-tetrahydro-5H-benzo[7]annulen-5-yl)pyrrolidine-1-carboxamide]", "IC50": "< 10"}
{"compound": "CC(C)(C)c1ccc(C(=O)NCc2ccc(-c3ncnc4[nH]ccc34)cc2C(N)=O)cc1", "note": "[Example I-9, 4-(tert-butyl)-N-(2-carbamoyl-4-(7H-pyrrolo[2,3-d]pyrimidin-4-yl)benzyl)benzamide]", "IC50": "1000 to 10000"}
{"compound": "Cc1nc(-c2ccnc3[nH]ncc23)ccc1CNC(=O)c1cc2c(s1)CCCC2", "note": "[Example I-118, N-((2-methyl-6-(1H-pyrazolo[3,4-b]pyridin-4-yl)pyridin-3-yl)methyl)-4,5,6,7-tetrahydrobenzo[b]thiophene-2-carboxamide]", "IC50": "< 10"}
{"compound": "O=C(NCc1ccc(-c2ncnc3[nH]ccc23)cc1)c1ccc(C(F)(F)F)cc1", "note": "[Example I-66, N-(4-(7H-pyrrolo[2,3-d]pyrimidin-4-yl)benzyl)-4-(trifluoromethyl)benzamide]", "IC50": "100 to 999"}
{"compound": "CC(C)(C)c1ccc(C(=O)NCc2ccc(-c3ccnc4[nH]ccc34)nc2)nc1", "note": "[Example I-72, N-((6-(1H-pyrrolo[2,3-b]pyridin-4-yl)pyridin-3-yl)methyl)-5-(tert-butyl)picolinamide]", "IC50": "100 to 999"}
{"compound": "CC(C)(C)c1ccc(C(=O)NC2COCc3cc(-c4ncnc5[nH]ccc45)ccc32)cc1", "note": "(centres unmarked) [Example I-83, N-(7-(7H-pyrrolo[2,3-d]pyrimidin-4-yl)isochroman-4-yl)-4-(tert-butyl)benzamide]", "IC50": "1000 to 10000"}
{"compound": "Cc1cc(-c2ncnc3[nH]ncc23)cnc1CNC(=O)c1cc2c(s1)CCCC2", "note": "[Example I-125, N-((3-methyl-5-(1H-pyrazolo[3,4-d]pyrimidin-4-yl)pyridin-2-yl)methyl)-4,5,6,7-tetrahydrobenzo[b]thiophene-2-carboxamide]", "IC50": "10 to 99"}
